Among the data in patent US8030453B2, “Methods of making an antibody that binds a chemerin polypeptide” (Euroscreen S.A., priority 2001, dated 2011) are EC50 values, retold here.

SMILES strings stand for the structures. Read-outs that look alike come from different tables or passages of the source. Peptide text beside a SMILES is read from it.

The assay has as its target T1, ChemerinR (Homo sapiens, UniProt Q99788).
T1 construct: This fragment was subcloned into the pcDNA3 (Invitrogen) vector; expressed in transfected cells; CHO-K1 elsewhere)
T1 sequence (Q99788 3-373): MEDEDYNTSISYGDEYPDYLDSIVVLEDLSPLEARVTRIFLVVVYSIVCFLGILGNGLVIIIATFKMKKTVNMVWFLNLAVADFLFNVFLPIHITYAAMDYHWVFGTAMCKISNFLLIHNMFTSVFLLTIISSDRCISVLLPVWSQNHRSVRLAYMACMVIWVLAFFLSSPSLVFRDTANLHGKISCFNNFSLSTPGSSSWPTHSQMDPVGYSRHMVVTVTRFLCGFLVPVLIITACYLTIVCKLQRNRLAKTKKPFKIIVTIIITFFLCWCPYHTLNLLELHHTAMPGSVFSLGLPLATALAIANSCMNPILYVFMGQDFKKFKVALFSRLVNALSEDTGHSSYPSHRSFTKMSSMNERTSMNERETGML
Put plainly: Calcium flux - Aequoscreen assay. The format is cell-based. As for the experimental part: ChemerinR expressing clones were transfected to coexpress mithochondrial apoaequorin and Gα16. Cells in mid-log phase, grown in media without antibiotics 18 hours prior to the test, were detached by gentle flushing with PBS-EDTA (5 mM EDTA), recovered by centrifugation and resuspended in “BSA medium” (DMEM/HAM's F12 with HEPES, without phenol red+0.1% BSA). Cells were then counted, centrifuged and resuspended in a 15 ml Falcon tube at a concentration of 1×10^6 cells/ml.
The Falcon tube, wrapped in aluminium foil, was then placed on a vertical rotating wheel and incubated at room temperature (temperature should be maintained below 22° C.) overnight in order to reconstitute active aequorin.
Cells were then diluted 1/10 in “BSA-medium” and incubated as described above for 60 min. Reference ligands were diluted in “BSA-medium” and distributed in a 96-well plate (50 μl/well). For each measurement, 50 μl of cells (i.e. 5 000 cells) were injected into each well of the plate containing the ligands, and the emitted light is recorded (FDSS, Hamamatsu) during 20 seconds following cells injection. Results were expressed as Relative Light Units (RLU).
The intensity of the emitted light was integrated, yielding for each well one value representative of the emitted light.

Usually EC50 stands for the concentration needed to bring the measured effect to its halfway point. In the case of `CC[C@H](C)[C@H](N)C(=O)N[C@@H](Cc1ccccc1)C(=O)N1CCC[C@H]1C(=O)NCC(=O)N[C@@H](CCC(N)=O)C(=O)N[C@@H](Cc1ccccc1)C(=O)N[C@@H](C)C(=O)N[C@@H](Cc1ccccc1)C(=O)N[C@@H](CO)C(=O)O` (H-IFPGQFAFS-OH; N-terminus and C-terminus assumed), the EC50 turned out to be 25.8 nM. Still for that read-out and setting: in the case of `C[C@H](NC(=O)[C@H](Cc1ccccc1)NC(=O)[C@H](CCC(N)=O)NC(=O)CNC(=O)[C@@H]1CCCN1C(=O)[C@H](Cc1ccccc1)NC(=O)[C@@H](N)Cc1ccc(O)cc1)C(=O)N[C@@H](Cc1ccccc1)C(=O)N[C@@H](CC(=O)O)C(N)=O` (H-YFPGQFAFD-NH2; N-terminus assumed) it was 4.3 nM; in that of `CC(C)C[C@H](N)C(=O)N[C@@H](Cc1ccccc1)C(=O)N1CCC[C@H]1C(=O)NCC(=O)N[C@@H](CCC(N)=O)C(=O)N[C@@H](Cc1ccccc1)C(=O)N[C@@H](C)C(=O)N[C@@H](Cc1ccccc1)C(=O)N[C@@H](CO)C(=O)O` (H-LFPGQFAFS-OH; N-terminus and C-terminus assumed), 66.3 nM. The same measure, in the same setting: the result for `CC(C)C[C@H](NC(=O)[C@@H](N)Cc1ccccc1)C(=O)N1CCC[C@H]1C(=O)NCC(=O)N[C@@H](CCC(N)=O)C(=O)N[C@@H](Cc1ccccc1)C(=O)N[C@@H](C)C(=O)N[C@@H](Cc1ccccc1)C(=O)N[C@@H](CO)C(=O)O` (H-FLPGQFAFS-OH; N-terminus and C-terminus assumed) reads 29.1 nM. Take `CC(C)[C@H](NC(=O)[C@@H](N)Cc1ccc(O)cc1)C(=O)N1CCC[C@H]1C(=O)NCC(=O)N[C@@H](CCC(N)=O)C(=O)N[C@@H](Cc1ccccc1)C(=O)N[C@@H](C)C(=O)N[C@@H](Cc1ccccc1)C(=O)N[C@@H](CO)C(=O)O` (H-YVPGQFAFS-OH; N-terminus and C-terminus assumed): the EC50 (read-out: EC50) was determined as 43.8 nM.
